The text below walks through data of patent US11414406B2, “Antagonists of the muscarinic acetylcholine receptor M4” (Vanderbilt University, priority 2018, dated 2022).

For one assay, the target named is T1, Human M4 (Homo sapiens, UniProt P08173).
T1 construct: expressed in transfected cells
T1 sequence (P08173 1-479): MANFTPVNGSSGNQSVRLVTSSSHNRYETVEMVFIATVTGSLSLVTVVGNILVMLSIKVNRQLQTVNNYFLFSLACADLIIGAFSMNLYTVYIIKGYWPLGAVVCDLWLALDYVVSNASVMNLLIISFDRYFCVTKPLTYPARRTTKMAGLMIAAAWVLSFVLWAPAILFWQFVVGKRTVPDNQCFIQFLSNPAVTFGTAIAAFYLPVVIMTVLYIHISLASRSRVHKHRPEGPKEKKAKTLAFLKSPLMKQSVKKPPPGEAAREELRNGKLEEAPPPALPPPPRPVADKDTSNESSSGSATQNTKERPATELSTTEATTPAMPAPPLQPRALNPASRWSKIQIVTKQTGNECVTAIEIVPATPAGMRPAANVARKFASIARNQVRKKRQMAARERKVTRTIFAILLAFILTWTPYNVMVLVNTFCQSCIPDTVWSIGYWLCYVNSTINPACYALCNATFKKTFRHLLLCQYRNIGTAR
In words: mAChR M4 cell-based functional assay (calcium flux, decrease of EC80 acetylcholine response). The note with it: M4/Gqi5/CHO-K1 cells. As for the experimental part:
Human M4 cDNA, along with the chimeric G protein Gqi5, were transfected into Chinese hamster ovary (CHO-K1) cells purchased from the American Type Culture Collection using Lipofectamine2000. M4/Gqi5/CHO cells were grown in Ham's F-12 medium containing 10% heat-inactivated fetal bovine serum (FBS), 20 mM HEPES, 500 μg/mL G418 sulfate, and 200 μg/mL Hygromycin B.
For high throughput measurement of agonist-evoked increases in intracellular calcium, CHO-K1 cells stably expressing muscarinic receptors were plated in growth medium lacking G418 and hygromycin at 15,000 cells/20 μL/well in Greiner 384-well black-walled, tissue culture (TC)-treated, clear-bottom plates (VWR). Cells were incubated overnight at 37° C. and 5% CO2. The next day, cells were washed using an ELX 405 (BioTek) with assay buffer; the final volume was then aspirated to 20 μL. Next, 20 μL of a 2.3 μM stock of Fluo-4/acetoxymethyl ester (Invitrogen, Carlsbad, Calif.), prepared as a 2.3 mM stock in DMSO and mixed in a 1:1 ratio with 10% (w/v) Pluronic F-127 and diluted in assay buffer, was added to the wells and the cell plates were incubated for 50 min at 37° C. and 5% CO2. Dye was removed by washing with the ELX 405 and the final volume was aspirated to 20 μL. Compound master plates were formatted in a 10 point concentration-response curve (CRC) format (1:3 dilutions) in 100% DMSO with a starting concentration of 10 or 1 mM using a BRAVO liquid handler (Agilent). Test compound CRCs were then transferred to daughter plates (240 nL) using the Echo acoustic plate reformatter (Labcyte, Sunnyvale, Calif.) and then diluted into assay buffer (40 μL) to a 2× stock using a Thermo Fisher Combi (Thermo Fisher Scientific, Waltham, Mass.).
Calcium flux was measured using the Functional Drug Screening System (FDSS) 6000 or 7000 (Hamamatsu Corporation, Tokyo, Japan) as an increase in the fluorescent static ratio. Compounds were applied to cells (20 μL, 2×) using the automated system of the FDSS at 2 seconds into the protocol and the data were collected at 1 Hz. At 143 s, 10 μL of an EC20 concentration of the muscarinic receptor agonist acetylcholine was added (5×), followed by the addition of 12 μL of an EC80 concentration of acetylcholine at the 268 s time point (5×). Agonist activity was analyzed as a concentration-dependent increase in calcium mobilization upon compound addition. Positive allosteric modulator activity was analyzed as a concentration-dependent increase in the EC20 acetylcholine response. Antagonist activity was analyzed as a concentration-dependent decrease in the EC80 acetylcholine response; for the purposes of the tables herein, an IC50 (inhibitory concentration 50) was calculated as a concentration-dependent decrease of the response elicited by an EC80 concentration of acetylcholine. Concentration-response curves were generated using a four-parameter logistical equation in XLFit curve fitting software (HMS, Bridgewater, N.J.) for Excel (Microsoft, Redmond, Wash.) or Prism (GraphPad Software, Inc., San Diego, Calif.) or the Dotmatics software platform (Dotmatics, Bishop's Stortford, UK).
Compounds were synthesized as described above. Activity (IC50 and Emin) was determined in the inAChR M4 cell-based functional assay as described above and the data are shown in Table 2. The compound numbers correspond to the compound numbers used in Examples 1 and 2 and Tables 1 and 2.
(Calcium flux is commonly read through the fluorescence of an indicator in the cells.)

In assay [1] the test system is catalepsy induced by the DA receptor antagonist haloperidol. In words: haloperidol-induced catalepsy in mice. The assay is classed as in vivo. The source says:
Furthermore, haloperidol-induced catalepsy, a model of parkinsonian motor disability, is reduced in M4 knockout mice as compared to wild-type controls. […] The reversal by scopolamine was uncommonly robust and more pronounced than we observe with agents targeting a number of other targets being evaluated for potential antiparkinsonian effects, including metabotropic glutamate (mGlu) receptors mGlu4 or mGlu5, A2A adenosine receptors, and NMDA receptors. […] Taken together with the extensive studies of M4 modulation of basal ganglia and motor function, these studies provide compelling evidence that M4 is the dominant mAChR subtype involved in the antiparkinsonian effects of non-selective mAChR antagonists and provide support for discovery and development of selective M4 antagonists for treatment of neurodegenerative disease such as PD, dystonia, tardive dyskinesia and other movement disorders.

As to `Cn1cc2cc(-c3ccc(N[C@H]4[C@@H]5CN(CCC(C)(C)C)C[C@@H]54)nn3)ccc2n1` [Compound 39, (1R,5S,6s)-3-(3,3-dimethylbutyl)-N-[6-(2-methylindazol-5-yl)pyridazin-3-yl]-3-azabicyclo[3.1.0]hexan-6-amine], at Human M4 (% ACh maximum at 30 μM, read-out: Emin (% ACh maximum at 30 μM)), the remaining activity at 30 µM stood at 5%. Also, the IC50 at Human M4 (decrease of response to EC80 acetylcholine) came out at 0.139 µM.

In the case of `CN1[C@@H]2C[C@@H](OC(=O)[C@H](CO)c3ccccc3)C[C@H]1[C@@H]1O[C@@H]12` [scopolamine], the “reduction of haloperidol-induced catalepsy” value in assay [1] (M4 KO mice) is “ineffective”. Also, in assay [1] (WT mice), the “reversal of haloperidol-induced catalepsy” value was “completely reversed”.

Broadly, the IC50 is the concentration needed to halve the response being measured.
